Data from US20070077283A1, “METHOD OF ENHANCING TRANSMUCOSAL DELIVERY OF THERAPEUTIC COMPOUNDS” (Nastech Pharmaceutical Company Inc., priority 2005, published 2007).
Several values for one entry are separate records, joined by “and”; a condition that tells them apart may be missing. Equal entries are not always repeated.

Key:
Format in all cases: cell-based
[1] = system: human-derived tracheal/bronchial epithelial cells (EpiAirway Tissue Model); experiment: FITC-Dextran permeation assay across epithelial cell monolayer; conditions: for Mean % FD3 Permeation: FITC-dextran 3000 (Table 4); for permeation of FD3 relative to negative controls: text summary of Table 4
How it was run: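 Formulations applied apically to EpiAirway tissue inserts, shaken ~100 rpm 1.5 hours at 37 °C, with FITC-dextran (3-500 kDa) added apically. Basolateral fluorescence read at 470 nm in triplicate; result expressed as percent of FITC-dextran crossing apical to basolateral.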

[2] = system: human-derived tracheal/bronchial epithelial cells (EpiAirway Tissue Model); experiment: TER recovery / TER time course; conditions: for TER Recovery (ohms) 16 Hours / TER Recovery (ohms) 0 Hour: lipid 1000 μM in Buffer I; for TER Recovery (ohms) 16 Hours: 16 hours post-treatment; for TER Recovery (ohms) 0 Hour: zero hour post-treatment
Protocol: TER recovery was calculated as described in the above paragraph.
Reversibility is a critical factor in selecting epithelial cell permeabiling enhancers since the barrier function of the epithelial cells serves as the first line of defense against pathogens and the entrance of toxins into the body. The permeation enhancing lipids C16 PAF; C18 PAF; C16 Enantiomeric PAF; POVPC; C16-04: 1 PC and PGPC were incubated with a monolayer of human-derived tracheal/bronchial epithelial cells (EpiAirway™ Model System) and TER […] The lipid glucosyl sphingosine was also tested. Each permeation enhancing lipid (except PGPC) was applied at a concentration of 1000 μM for 15, 30 and 60 minutes. The permeation enhancing lipid PGPC and the lipid glucosyl sphingosine were applied at a concentration of 500 μM for 1, 3, 5, 30 and 60 minutes. TER measurements were taken immediately after each application to determine how quickly each lipid could reduce TER.
[…] […] PBS served as a negative control and Triton-X100™ served as a positive control.
To asses how quickly the cells recovered after application and removal of the permeation enhancing lipid PGPC and the lipid glucosyl sphingosine, TER measurements were taken at 1, 3, 5, 7, and 9 hours post-treamtnet for each of the prior mentioned timed treatments (i.e., 1, 3, 5, 15, 30 and 60 minutes). TER recovery measures the reversibility of the lipid mediated effect on an epithelia. […] Hyptonic PBS served as a negative control for TER reduction and TER recovery.

[3] = system: human-derived tracheal/bronchial epithelial cells (EpiAirway Tissue Model); experiment: Transepithelial electrical resistance (TER) of an epithelial cell monolayer; conditions: for activity at 1000 µM / activity at 500 µM: Homo sapiens, Epithelial cell, 1 h, read-out: Mean % of Original TER Value; for activity at 1000 µM: lower value = greater TER reduction (Table 4); for TER reduction within 15 minutes: 15 minute incubation; for activity at 500 µM: lipid 500 μM (Table 4)
How it was run: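 EpiAirway human tracheal/bronchial epithelial tissue inserts, fed daily during recovery; resistance read with EVOM voltohmmeter in Endohm-12 chamber in MatTek medium, blank-insert background (about 5-20 ohms) measured. TER normalised to tissue surface area, expressed as Ohms*cm2 and percent of original TER; lower TER taken as enhanced permeation.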

[4] = after 1, 3, 5, 15 and 30 minute treatments, lipids 500 μM, PN159 25 μM
[5] = after 60 minute treatment, lipids 500 μM, PN159 25 μM
[6] = lipid 1000 μM, percent decrease in TER from time zero

Row | SMILES | % FITC-Dextran Permeation FD10 ([1]; lipid 1000 μM) | % FITC-Dextran Permeation FD40 ([1]; lipid 1000 μM) | % FITC-Dextran Permeation FD70 ([1]; lipid 1000 μM) | % FITC-Dextran Permeation FD500 ([1]; lipid 1000 μM) | % FITC-Dextran Permeation FD3 ([1]; lipid 1000 μM (Table 5)) | % FD3 Permeation ([1]; lipid 1000 μM in Buffer I) | % FD3 Permeation ([1]; lipid 1000 μM in Buffer II) | Mean % FD3 Permeation ([1]; lipid 1000 μM) | permeation of FD3 relative to negative controls [1] | TER Recovery (ohms) 16 Hours [2] | TER Recovery (ohms) 0 Hour [2] | activity at 1000 µM ([3]; lipid 1000 μM) | % Original TER ([3]; lipid 1000 μM in Buffer I) | % Original TER ([3]; lipid 1000 μM in Buffer II) | TER reduction within 15 minutes ([3]; lipid 1000 μM) | Mean % FD3 Permeation ([1]; lipid 500 μM) | activity at 500 µM [3] | further results
1 | CCCCCCCCCCCCCCCCOC[C@@H](COP(=O)([O-])OCC[N+](C)(C)C)OC(C)=O [C16 Enantiomeric PAF, 3-O-Hexadecyl-2-Acetoyl-sn-Glycero-1-Phosphocholine] | 4% | 2% | 1% | 0% | 20% | 46% | 23% | 11% | enhanced the permeation of FD3 above that of the negative controls | 462 ohms | 9 ohms | 1% | 2% | 9% | levels equivalent to that of the Triton-X100™ control | – | – | –
2 | CCCCCCCCCCCCCCCCOC[C@H](COP(=O)([O-])OCC[N+](C)(C)C)OC(C)=O [C16-02:0 PC(C16 PAF), 1-O-Hexadecyl-2-Acetoyl-sn-Glycero-3-Phosphocholine] | 6% | 2% | 2% | 0% | 22% | 41% | 27% | 14% | enhanced the permeation of FD3 above that of the negative controls | 650 ohms | 9 ohms | 2% | 1% | 8% | levels equivalent to that of the Triton-X100™ control | 5% | 27% | –
3 | C=CCC(=O)O[C@H](COCCCCCCCCCCCCCCCC)COP(=O)([O-])OCC[N+](C)(C)C [C16-04:1 PC] | 8% | 3% | 0% | 0% | 25% | 44% | 8% | 12% | enhanced the permeation of FD3 above that of the negative controls | 520 ohms | 10 ohms | -2% | 2% | 23% | – | 6% | 11% | –
4 | CCCCCCCCCCCCCCCCCCOC[C@H](COP(=O)([O-])OCC[N+](C)(C)C)OC(C)=O [C18-02:0 PC(C18 PAF), 1-O-Octadecyl-2-Acetoyl-sn-Glycero-3-Phosphocholine] | 8% | 3% | 2% | 0% | 24% | 42% | 27% | 8% | enhanced the permeation of FD3 above that of the negative controls | 497 ohms | 6 ohms | 1% | 1% | 7% | levels equivalent to that of the Triton-X100™ control | 2% | 44% | –
5 | CCCCCCCCCCCCCCCC(=O)OC[C@H](COP(=O)([O-])OCC[N+](C)(C)C)OC(=O)CCCC(=O)O [PGPC, 1-Palmitoyl-2-Glutaroyl-sn-Glycero-3-Phosphocholine] | – | – | – | – | – | – | – | – | – | – | – | – | – | – | – | – | – | % FITC-Dextran Permeation FD3 ([1]; lipid 500 μM (Table 5)): 10%; time to full TER recovery (PBS control levels) [2, 4]: fully recovered within one hour; time to full TER recovery (PBS control levels) [2, 5]: did not reach PBS TER control levels until three hours post-treatment; Mean TER Reduction 1 hr. Post-treatment ([3]; lipid 62.5 μM): 21%; Mean TER Reduction 1 hr. Post-treatment ([3]; lipid 125 μM): 28%; Mean TER Reduction 1 hr. Post-treatment ([3]; lipid 250 μM): 48%; Mean TER Reduction 1 hr. Post-treatment ([3]; lipid 500 μM): 80%; Mean TER Reduction 1 hr. Post-treatment [3, 6]: 92%
6 | CC(C)C[C@H](NC(=O)[C@H](C)NC(=O)[C@H](CCCCN)NC(=O)[C@H](CC(C)C)NC(=O)[C@H](C)NC(=O)[C@H](CC(C)C)NC(=O)[C@H](CCCCN)NC(=O)[C@H](CC(C)C)NC(=O)[C@H](C)NC(=O)[C@H](CC(C)C)NC(=O)[C@@H](N)CCCCN)C(=O)N[C@@H](CCCCN)C(=O)N[C@@H](C)C(=O)N[C@@H](C)C(=O)N[C@@H](CC(C)C)C(=O)N[C@@H](CCCCN)C(=O)N[C@@H](CC(C)C)C(=O)N[C@@H](C)C(N)=O [PN159, reference compound] | – | – | – | – | – | – | – | – | – | – | – | – | – | – | – | – | – | % FITC-Dextran Permeation FD10 ([1]; PN159 25 μM): 4%; % FITC-Dextran Permeation FD40 ([1]; PN159 25 μM): 2%; % FITC-Dextran Permeation FD3 ([1]; PN159 25 μM (Table 5)): 7%; time to full TER recovery (PBS control levels) [2, 4]: 2 h; time to full TER recovery (PBS control levels) [2, 5]: 9 h; time to TER reduction ([2]; lipids 500 μM, PN159 25 μM): 10 min; % Original TER ([3]; PN159 25 μM / PYY 13.67 mg/mL (High)): 10%; % of the original TER value ([3]; controls of the further test of lipids at 250 μM to 1000 μM (b219-b220)): 8%; Mean TER Reduction 1 hr. Post-treatment ([3]; positive control PN159 25 μM): 85% and 87%
7 | CCCCCCCCCCCCCCCC(=O)OC[C@H](COP(=O)([O-])OCC[N+](C)(C)C)OC(=O)CCCC=O [POVPC, 1-Palmitoyl-2-(5′-oxo-Valeroyl)-sn-Glycero-3-Phosphocholine] | 3% | 1% | 0.3% | 0% | 10% | 53% | 9% | 10% | enhanced the permeation of FD3 above that of the negative controls | 508 ohms | 71 ohms | 0% | 25% | 17% | – | – | – | permeation of FITC-dextran 3000 (FD3) over time ([1]; 1000 μM, 15, 30, 60 minutes): time-dependent permeation; % FITC-Dextran Permeation FD3 ([1]; lipid 500 μM (Table 5)): 2%; TER reduction by 60 minutes ([3]; 1000 μM, 60 minutes): levels nearly equivalent to that of the Triton-X100™ control; TER reduced to % below that of the PBS control ([3]; 1000 μM, within 15 minutes): 20%; TER reduced to % of the PBS control ([3]; 1000 μM, within 30 minutes): about 25%; Mean TER Reduction 1 hr. Post-treatment ([3]; lipid 62.5 μM): 23%; Mean TER Reduction 1 hr. Post-treatment ([3]; lipid 125 μM): 32%; Mean TER Reduction 1 hr. Post-treatment ([3]; lipid 250 μM): 52%; Mean TER Reduction 1 hr. Post-treatment ([3]; lipid 500 μM): 87%; Mean TER Reduction 1 hr. Post-treatment [3, 6]: 93%
